Experimental data published in article PMC6749236, “Synthesis of Novel 2-(Het)arylpyrrolidine Derivatives and Evaluation of Their Anticancer and Anti-Biofilm Activity” (Molecules, 2019).

Assays:
P388 murine leukemia = assay: In vivo anti-tumor activity, i.p. implanted leukemia; parameters: species or system BDF1 hybrid male mice; details: for ILS / MST ± SD / antitumor (anti-leukemic) activity, in words: days 1, 5, 9; for ILS / MST ± SD: P388; for Survival: day 60; for Survivors/Total: survivors on day 60; for antitumor (anti-leukemic) activity, in words: P388, dose range 18–83 mg/kg/day i.p.
Procedure: Animals. In vivo experiments were performed using the BDF1 hybrid male mice of 22–24 g weight. The experimental animals were caged in a standard vivarium in 12 h light conditions with free access to food and water. All manipulations with the animals were performed in accordance with the solutions of the Commission on Bioethics of the Institute of Problems of Chemical Physics, Russian Academy of Sciences (IPCP RAS).
Anti-tumor activity. The tumors were transplanted intraperitoneally (i.p.) in accordance with a standard procedure inoculum: 10^6 tumor cells in isotonic solution of NaCl, V = 0.2 cm^3 (leukemia P388). Original compounds were injected intraperitoneally as aqueous solution. Doses from 18 to 83 mg/kg/day and the mode of administration on days 1, 5, and 9 after transplantation were used. In each experiment, a single group of tumor-bearing animals not injected with the compounds served as the control group. Each group consisted of six mice. The animals were observed daily for survival for a minimum of 60 days. The efficacy of the therapy against leukemia (defined as increase in lifespan—ILS) was assessed as the percentage of the median survival time (MST) of the treated group (t) to that of the control group (c): ILS(%) = (MSTt/MSTc) × 100.
Statistics. The experiments were carried out in triplicate. The data are presented in the form X ± SD (mean ± standard deviation). The significance of the differences between the groups was assessed using Student’s t-test. Values of p < 0.05 were considered statistically significant. The data were processed statistically using GraphPad Prism.

Chang liver cell line = assay: Cytotoxicity assay (Cytell Cell Imaging), normal cell line; format: cell-based; details: Homo sapiens, read-out: IC50 Normal Cell Line Chang Liver
M-Hela = assay: Cytotoxicity assay (Cytell Cell Imaging, DAPI/propidium iodide), cancer cell line; format: cell-based; details: Homo sapiens, M-HeLa, read-out: IC50 Cancer Cell Line M-Hela
[1] = Water solubility (selection for parenteral administration); format: physicochemical
[2] = tested on: early apoptosis markers (Caspase-8, Caspase-9) in M-Hela cell lysates; assay: Multiplex analysis of early apoptosis markers (MILLIPLEX MAP 7-plex, Luminex); format: cell-based, human; details: 24 h, IC50 concentration of 14.7 µM
Procedure: Multiplex analysis of early apoptosis markers. Next, using the MILLIPLEX® MAP 7-plex Early Phase Apoptosis Signaling kit, seven markers of early apoptosis of JNK, Bad, Bcl-2, Akt, Caspase-9, p53, and Caspase-8 were detected in M-Hela cell lysates. The median fluorescence intensity (MFI) was measured using the Luminex® system. This assay is a quick and convenient alternative to Western blot and immunoprecipitation.
Multiplex analysis of early apoptosis markers. M-Hela cells were incubated for 24 hours with the test substance. Cells were lysed in MILLIPLEX® MAP Lysis buffer containing protease inhibitors. Twenty micrograms of total protein of each lysate diluted in MILLIPLEX® MAP Assay Buffer 2 was analyzed according to the analysis protocol (the lysate was incubated at 4 °C overnight). The mean fluorescence intensity (MFI) was detected using the Luminex® system, MERCK, USA.

M-Hela cells [3] = assay: Mitochondrial membrane potential, JC-10 flow cytometry; format: cell-based, human; details: IC50 concentration of 14.7 μM
Procedure: Effects on the mitochondrial membrane potential (Δψm) by lead compounds. In confirmation of data on the course of apoptosis in cells along an external pathway not associated with dysfunctional mitochondria, the ability of the tested compounds to reduce the potential of the mitochondrial membrane (Δψm) in M-Hela culture cells was examined using the example of compound 6g. Studies were performed using flow cytometry methods using JC-10 reagent. In normal cells with a high potential of the mitochondrial membrane, the dye JC-10 forms aggregates (J-aggregate) near the mitochondrial membranes. When the membrane potential due to the stimulation of apoptosis falls, JC-10 is evenly distributed in the cell as a monomer (J-monomer). JC-10 units in normal cells have red fluorescence, and JC-10 monomers are green. The ratio between orange-red and green fluorescence can be used to assess the onset of apoptosis. […] The results obtained indicate that the mechanism of action of the studied compounds is not associated with the induction of apoptosis, which proceeds along the mitochondrial pathway.
Flow Cytometry Assay. Mitochondrial membrane potential. […] After the cells were rinsed three times and suspended in PBS, the JC-10 fluorescence was observed by flow cytometry (Guava easy Cyte 8HT, Guava Technologies Inc., Hayward, CA, USA).

M-Hela cells [4] = assay: Induction of apoptotic effects (annexin V-Alexa Fluor 647, Cytell); format: cell-based, human; details: 24 hours of treatment, concentration corresponding to the IC50 value (14.7 μM)
Procedure: Induction of Apoptotic Effects by test compounds. Cell Culture. M-Hela cells at 1 × 10^6 cells/well in a final volume of 2 mL were seeded into six-well plates. After 24 hours of incubation, a solution of the test compound 6g was added to the wells at the concentration studied.
Cytell Cell Imaging System Assay. M-Hela cells were plated into a 24-well plate (Eppendorf) at a concentration of 1 × 10^6 cells/mL, 500 µL of medium per well, and cultured in a CO2 incubator at 37 °C. Twenty-four hours after seeding the cells into wells the compound was added at a preset dilution, 500 µL to each well. […] Evaluation of apoptotic effects was performed with the help of multifunctional system Cytell Cell Imaging, using Cell Viability BioApp and Automated Imaging BioApp applications. The annexin V-Alexa Fluor 647 apoptosis detection kit, DAPI and propidium iodide purchased from Sigma.
Statistical analysis. The experiments were repeated three times. The cytometric results were analyzed by the Cytell Cell Imaging multifunctional system using the Cell Viability BioApp and Apoptosis BioApp application. The data in the tables and graphs are given as the mean ± standard error.

SMILES: Cc1cc(O)c(C2CCCN2C(=O)NCCN(C)C)c(=O)o1.O=C(O)C(F)(F)F (stereo not drawn) [7h, 2-(2-(4-Hydroxy-6-methyl-2-oxo-2H-pyran-3-yl)pyrrolidine-1-carboxamido)-N,N-dimethylethan-1-aminium 2,2,2-trifluoroacetate]
- ILS (P388 murine leukemia; 18 mg/kg/day i.p.): 0%
- MST ± SD (P388 murine leukemia; 18 mg/kg/day i.p.): 11.0 ± 0.6 days
- Survival (P388 murine leukemia; 18 mg/kg/day): 0%
- Survivors/Total (P388 murine leukemia; 18 mg/kg/day): 0/6
- ILS (P388 murine leukemia; 26 mg/kg/day i.p.): 0%
- MST ± SD (P388 murine leukemia; 26 mg/kg/day i.p.): 10.3 ± 0.2 days
- Survival (P388 murine leukemia; 26 mg/kg/day): 0%
- Survivors/Total (P388 murine leukemia; 26 mg/kg/day): 0/6
- ILS (P388 murine leukemia; 40 mg/kg/day i.p.): 0%
- MST ± SD (P388 murine leukemia; 40 mg/kg/day i.p.): 10.2 ± 0.2 days
- Survival (P388 murine leukemia; 40 mg/kg/day): 0%
- Survivors/Total (P388 murine leukemia; 40 mg/kg/day): 0/6
- ILS (P388 murine leukemia; 55 mg/kg/day i.p.): 0%
- MST ± SD (P388 murine leukemia; 55 mg/kg/day i.p.): 10.7 ± 0.2 days
- Survival (P388 murine leukemia; 55 mg/kg/day): 0%
- Survivors/Total (P388 murine leukemia; 55 mg/kg/day): 0/6
- ILS (P388 murine leukemia; 83 mg/kg/day i.p.): 0%
- MST ± SD (P388 murine leukemia; 83 mg/kg/day i.p.): 10.3 ± 0.2 days
- Survival (P388 murine leukemia; 83 mg/kg/day): 0%
- Survivors/Total (P388 murine leukemia; 83 mg/kg/day): 0/6
- antitumor (anti-leukemic) activity, in words (P388 murine leukemia): did not show antitumor properties
- IC50 (Chang liver cell line): > 100 µM
- IC50 (M-Hela): > 100 µM
- solubility in water, in words [1]: water-soluble

SMILES: O=C(NC1CCCCC1)N1CCCC1c1ccc(Nc2c([N+](=O)[O-])c(Cl)cc3c2no[n+]3[O-])cc1O (stereo not drawn) [6g, 6-Chloro-4-((4-(1-(cyclohexylcarbamoyl)pyrrolidin-2-yl)-3-hydroxyphenyl)amino)-5-nitrobenzo[c][1,2,5]oxadiazole 1-oxide]
- fluorescence intensity of Caspase-8 versus control [2]: two times higher
- fluorescence intensity of Caspase-9 versus control [2]: at the control level
- IC50 (Chang liver cell line): 46 ± 2.7 µM
- IC50 (M-Hela): 14.7 ± 0.9 µM
- decrease in mitochondrial membrane potential (Δψm) (M-Hela cells [3]): No decrease
- M-Hela cells in which apoptosis was induced (M-Hela cells [4]): 25%
- melting point: 170 to 175 °C (dec.)

SMILES: O=C(Nc1ccccc1)N1CCCC1c1cc2c(cc1O)OCO2 (stereo not drawn) [5b, 2-(6-Hydroxybenzo[d][1,3]dioxol-5-yl)-N-phenylpyrrolidine-1-carboxamide]
- ILS (P388 murine leukemia; 18 mg/kg/day i.p.): 177%
- MST ± SD (P388 murine leukemia; 18 mg/kg/day i.p.): 27.7 ± 10.3 days
- Survival (P388 murine leukemia; 18 mg/kg/day): 33%
- ILS (P388 murine leukemia; 26 mg/kg/day i.p.): 165%
- MST ± SD (P388 murine leukemia; 26 mg/kg/day i.p.): 26.5 ± 10.6 days
- Survival (P388 murine leukemia; 26 mg/kg/day): 33%
- ILS (P388 murine leukemia; 40 mg/kg/day i.p.): 160%
- MST ± SD (P388 murine leukemia; 40 mg/kg/day i.p.): 26.0 ± 10.8 days
- Survival (P388 murine leukemia; 40 mg/kg/day): 33%
- ILS (P388 murine leukemia; 55 mg/kg/day i.p.): 80%
- MST ± SD (P388 murine leukemia; 55 mg/kg/day i.p.): 18.0 ± 8.4 days
- Survival (P388 murine leukemia; 55 mg/kg/day): 17%
- ILS (P388 murine leukemia; 83 mg/kg/day i.p.): 0%
- MST ± SD (P388 murine leukemia; 83 mg/kg/day i.p.): 9.7 ± 0.2 days
- Survival (P388 murine leukemia; 83 mg/kg/day): 0%
- Survivors/Total (P388 murine leukemia; 83 mg/kg/day): 0/6
- antitumor (anti-leukemic) activity, in words (P388 murine leukemia): pronounced anti-leukemic activity
- IC50 (Chang liver cell line): > 100 µM
- IC50 (M-Hela): > 100 µM
- solubility in water, in words [1]: water-soluble

SMILES: CN(C)CCNC(=O)N1CCCC1c1cc2c(cc1O)OCO2.O=C(O)C(F)(F)F (stereo not drawn) [5h, 2-(2-(6-Hydroxybenzo[d][1,3]dioxol-5-yl)pyrrolidine-1-carboxamido)-N,N-dimethylethan-1-aminium 2,2,2-trifluoroacetate]
- ILS (P388 murine leukemia; 18 mg/kg/day i.p.): 276%
- MST ± SD (P388 murine leukemia; 18 mg/kg/day i.p.): 35.7 ± 10.9 days
- Survival (P388 murine leukemia; 18 mg/kg/day): 50%
- Survivors/Total (P388 murine leukemia; 18 mg/kg/day): 3/6
- ILS (P388 murine leukemia; 26 mg/kg/day i.p.): 95%
- MST ± SD (P388 murine leukemia; 26 mg/kg/day i.p.): 18.5 ± 8.3 days
- Survival (P388 murine leukemia; 26 mg/kg/day): 17%
- Survivors/Total (P388 murine leukemia; 26 mg/kg/day): 1/6
- ILS (P388 murine leukemia; 40 mg/kg/day i.p.): 447%
- MST ± SD (P388 murine leukemia; 40 mg/kg/day i.p.): 52.0 ± 8.0 days
- Survival (P388 murine leukemia; 40 mg/kg/day): 83%
- Survivors/Total (P388 murine leukemia; 40 mg/kg/day): 5/6
- ILS (P388 murine leukemia; 55 mg/kg/day i.p.): 300%
- MST ± SD (P388 murine leukemia; 55 mg/kg/day i.p.): 38.0 ± 9.9 days
- Survival (P388 murine leukemia; 55 mg/kg/day): 50%
- Survivors/Total (P388 murine leukemia; 55 mg/kg/day): 3/6
- ILS (P388 murine leukemia; 83 mg/kg/day i.p.): 100%
- MST ± SD (P388 murine leukemia; 83 mg/kg/day i.p.): 19.0 ± 8.2 days
- Survival (P388 murine leukemia; 83 mg/kg/day): 17%
- Survivors/Total (P388 murine leukemia; 83 mg/kg/day): 1/6
- antitumor (anti-leukemic) activity, in words (P388 murine leukemia): pronounced anti-leukemic activity
- IC50 (Chang liver cell line): > 100 µM
- IC50 (M-Hela): > 100 µM
- solubility in water, in words [1]: water-soluble
